One assay addresses T1, KRAS G12S (Homo sapiens, UniProt P01116, G12S).
T1 construct: made in house; host or cells: E. coli BL21 (DE3)
The assay is described as follows: HTRF assay, interaction of GST-tagged K-Ras with His-tagged hSOS1 (KRAS G12S). The settings on record: <500 nM, read-out: Inhibition of KRAS G12S (IC50). It counts as biochemical. The text has this: This assay can be also used to assess a selective inhibition or reduction of signaling output of a mutant Ras protein relative to a wildtype, or relative to a different mutant Ras protein. For example, the equilibrium interaction of wildtype KRAS or K-Ras mutant (e.g., wildtype or a mutant thereof) with SOS1 (e.g., hSOS1) can be assessed as a proxy or an indication for the ability of a subject compound to bind and inhibit Ras protein. The HTRF assay detects from (i) a fluorescence resonance energy transfer (FRET) donor (e.g., antiGST-Europium) that is bound to GST-tagged K-Ras mutant to (ii) a FRET acceptor (e.g., anti-6His-XL665) bound to a His-tagged hSOS1.
The assay buffer can contain ˜5 mM HEPES pH 7.4, ˜150 mM NaCl, ˜1 mM DTT, 0.05% BSA and 0.0025% (v/v) Igepal. A Ras working solution is prepared in an assay buffer containing typically a suitable amount of the protein construct (e.g., GST-tagged K-Ras mutant) and the FRET donor (e.g., antiGST-Eu(K) from Cisbio, France). A SOS1 working solution is prepared in an assay buffer containing suitable amount of the protein construct (e.g., His-hSOS1) and the FRET acceptor (e.g., anti-6His-XL665 from Cisbio, France). A suitable amount of the protein construct will depend on the range of activity or range of IC50 values being detected or under investigation. For detecting an IC50 within a range of 500 nM, the protein constructs of the same range of molarity can be utilized.
A fixed volume of DMSO with or without test compound is transferred into a 384-well plate. Ras working solution is added to all wells of the test plate. SOS1 working solution is added to all wells except for those that are subsequently filled with inhibitor control solution. Upon incubation for about 10 minutes or longer, the fluorescence is measured with a M1000Pro plate reader (Tecan) using HTRF detection (excitation 337 nm, emission 1: 620 nm, emission 2: 665 nm). Compounds are tested in duplicate at different concentrations (for example, 10 μM, 2.5 μM, 0.63 μM, 0.16 μM, 0.04 μM, 0.01 μM test compound). The ratiometric data (i.e., emission 2 divided by emission 1) is used to calculate IC50 values against Ras using GraphPad Prism (GraphPad software). Signaling output measured in terms of IC50 values can be obtained and a ratio of IC50 against one mutant relative to another mutant can be calculated. For instance, a selective reduction of K-Ras G12S signaling output can be evidenced by a ratio greater than one. In particular, a selective reduction of K-Ras G12S signaling relative to K-Ras WT signaling is evidenced if the ratio of IC50 (against K-Ras WT) to IC50 (against K-Ras G12S) is greater than 1.

A further assay addresses T2, KRAS WT (Homo sapiens, UniProt P01116).
T2 construct: made in house; host or cells: E. coli BL21 (DE3)
As to the kind of experiment: HTRF assay, interaction of GST-tagged K-Ras with His-tagged hSOS1 (KRAS wildtype). It counts as biochemical. The conditions noted are these: <500 nM, read-out: Inhibition of KRAS WT (IC50). The method, boiled down:
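GST-K-Ras (G12S or WT) with anti-GST-Eu donor mixed with His-hSOS1 and anti-6His-XL665 acceptor in ~5 mM HEPES pH 7.4, 150 mM NaCl, 1 mM DTT, 0.05% BSA, 0.0025% Igepal. After ~10 min or longer, HTRF 665/620 nm ratio read.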
For orientation: In TR-FRET formats the signal depends on donor and acceptor labels being close together.

We go through 6 compounds from patent publication US12606572B2, “Substituted heterocycles and uses thereof” (Kumquat Biosciences Inc., priority 2023, dated 2026).

Where only a bound is given, the exact number is not on record here.

T2 sequence (P01116 1-188 isoform P01116-2): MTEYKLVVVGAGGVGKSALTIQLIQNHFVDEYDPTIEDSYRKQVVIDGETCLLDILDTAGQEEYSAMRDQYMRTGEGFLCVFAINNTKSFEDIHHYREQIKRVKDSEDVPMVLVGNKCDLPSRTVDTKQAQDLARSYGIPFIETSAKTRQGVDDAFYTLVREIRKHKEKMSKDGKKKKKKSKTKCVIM
T1 sequence (P01116 1-188 isoform P01116-2 G12S): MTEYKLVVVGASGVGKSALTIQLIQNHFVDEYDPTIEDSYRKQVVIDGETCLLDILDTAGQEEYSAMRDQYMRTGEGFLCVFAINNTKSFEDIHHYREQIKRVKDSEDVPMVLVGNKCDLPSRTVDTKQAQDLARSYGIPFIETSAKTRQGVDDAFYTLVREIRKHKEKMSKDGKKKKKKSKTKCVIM

Take `C=C(C(=O)N1CC(CN2CCOc3c(Cl)c(-c4ccc(F)c5sc(N)c(C#N)c45)c(F)c4nc(OC[C@@]56CCCN5C[C@H](F)C6)nc2c34)C1)C1CC1` [Compound 447, 2-amino-4-(8-chloro-4-((1-(2-cyclopropylacryloyl)azetidin-3-yl)methyl)-10-fluoro-2-(((2R,7aS)-2-fluorotetrahydro-1H-pyrrolizin-7a(5H)-yl)methoxy)-5,6-dihydro-4H-[1,4]oxazepino [5,6,7-de]quinazolin-9-yl)-7-fluorobenzo[b]thiophene-3-carbonitrile]: the IC50 at KRAS G12S and at KRAS WT was less than 500 nM in each case.

For `C/C(C#N)=C\C(=O)N1CC(CN2CCOc3c(Cl)c(-c4ccc(F)c5sc(N)c(C#N)c45)c(F)c4nc(OC[C@@]56CCCN5C[C@H](F)C6)nc2c34)C1` [Compound 439, 2-amino-4-(8-chloro-4-((1-((E)-3-cyanobut-2-enoyl)azetidin-3-yl)methyl)-10-fluoro-2-(((2R,7aS)-2-fluorotetrahydro-1H-pyrrolizin-7a(5H)-yl)methoxy)-5,6-dihydro-4H-[1,4]oxazepino[5,6,7-de]quinazolin-9-yl)-7-fluorobenzo [b]thiophene-3-carbonitrile], the 50% inhibitory concentration (IC50) at KRAS G12S and at KRAS WT was less than 500 nM throughout.

`CC1([C@@H]2[C@H](CN3CCCOc4c(Cl)c(-c5ccc(F)c6sc(N)c(C#N)c56)c(F)c5nc(OC[C@@]67CCCN6C[C@H](F)C7)nc3c45)CN2C(=O)n2ccnc2)CC1` [Compound 494, 4-(4-(((2S,3R)-1-(1H-imidazole-1-carbonyl)-2-(1-methylcyclopropyl)azetidin-3-yl)methyl)-9-chloro-11-fluoro-2-(((2R,7aS)-2-fluorotetrahydro-1H-pyrrolizin-7a(5H)-yl)methoxy)-4,5,6,7-tetrahydro-[1,5]oxazocino [4,3,2-de]quinazolin-10-yl)-2-amino-7-fluorobenzo[b] thiophene-3-carbonitrile]: the IC50 on KRAS G12S and at KRAS WT was less than 500 nM in each case.

Regarding `Cc1cn(C(=O)N2CC[C@@H](N3CCOc4c(Cl)c(-c5ccc(F)c6sc(N)c(C#N)c56)c(F)c5nc(OC[C@@]67CCCN6C[C@H](F)C7)nc3c45)[C@H]2C)c(C)n1` [Compound 403, 2-amino-4-(8-chloro-4-((2R,3R)-1-(2,4-dimethyl-1H-imidazole-1-carbonyl)-2-methylpyrrolidin-3-yl)-10-fluoro-2-(((2R,7aS)-2-fluorotetrahydro-1H-pyrrolizin-7a(5H)-yl)methoxy)-5,6-dihydro-4H-[1,4]oxazepino[5,6,7-de]quinazolin-9-yl)-7-fluorobenzo[b]thiophene-3-carbonitrile], the half-maximal inhibitory concentration (IC50) on KRAS G12S and at KRAS WT was less than 500 nM throughout.

`CC(C)[C@@H]1[C@@H](CN2c3nc(OC[C@@]45CCCN4C[C@H](F)C5)nc4c(F)c(-c5ccc(F)c6sc(N)c(C#N)c56)c(Cl)c(c34)OC[C@@H]2[C@H](C)O)CN1C(=O)n1ccnc1` (single isomer, unassigned) [Compound 410]: the half-inhibitory concentration (IC50) on KRAS G12S and at KRAS WT was less than 500 nM in each case.

With `CC([C@H]1CCN1C(=O)n1cncn1)N1CCOc2c(Cl)c(-c3ccc(F)c4sc(N)c(C#N)c34)c(F)c3nc(OC[C@@]45CCCN4C[C@H](F)C5)nc1c23` (stereo partly drawn) [Compound 445, 4-(4-(1-((R)-1-(1H-1,2,4-triazole-1-carbonyl)azetidin-2-yl)ethyl)-8-chloro-10-fluoro-2-(((2R,7aS)-2-fluorotetrahydro-1H-pyrrolizin-7a (5H)-yl)methoxy)-5,6-dihydro-4H-[1,4]oxazepino[5,6,7-de]quinazolin-9-yl)-2-amino-7-fluorobenzo[b]thiophene-3-carbonitrile], the concentration for half-maximal inhibition (IC50) at KRAS G12S and at KRAS WT was less than 500 nM throughout.
